Legend:
Type in all cases: cell-based
[1] = test system: amyloid precursor protein (APP) proteolysis; assay: Repressor Release Assay (RRA); parameters: key to RRA data (footnote symbols): **: Inactive due to toxicity; however, this compound, at 3-4 μM, reduces Aβ levels by 50% in CHO cells transfected with human APP695 as measured by ELISA without exhibiting toxicity.; ***: Inactive; however, this compound, at 1-4 μM, reduces Aβ levels by 50% in CHO cells transfected with human APP695 as measured by ELISA without exhibiting toxicity; settings: transfected CHO-K1 cells; for fold induction at 20 µg/mL: Cricetulus griseus, CHO-K1, all compounds tested at 20 μg/mL, luciferase activity over diluent control, read-out: RRA data (Fold increase of APPI)
Procedure: The beta amyloid inhibitory activity of many of the compounds of the present invention has been determined using the Repressor Release Assay (RRA). See, Table 3 below. A compound is considered active in RRA if it leads to at least a 1.5 fold increase in luciferase activity at 20 μg/mL and is non-toxic.
The compound is considered active in RRA if it leads to at least a 1.5 fold increase in APPI as measured by an increase in luciferase activity at 20 μg/mL and is non-toxic. Shuey, D. J., Sheiffele, P., Jones, D., Cockett, M. I., and Quinet, E. M. (1999) Repressor release: a useful tool for monitoring amyloid precursor protein (APP) proteolysis in mammalian cells. Society for Neuroscience Abstracts, Vol. 25, 29th Annual Meeting of Society for Neuroscience, Miami Beach, Fla., Oct. 23-28, 1999.
CHO—K1 cells are cultured in whole DMEM media (DMEM—High Glucose with 10% fetal bovine serum, 1% Non-essential Amino Acids, and 1% Penicillin-Streptomycin) at 37° C. with 5% CO2. Two million cells are plated into 10-cm dishes 24 hrs prior to transfection.
Transient transfections are completed as recommended by Gibco BRL using their Lipofectamine Plus system. First, 6 μg of pRSVO-luc and 6 μg of APP-lacI construct DNA are added to 460 μL Opti-Mem transfection media and incubated with 30 μL Plus reagent for 15 minutes. Then, a lipid mixture of 40 μL Lipofectamine reagent and 460 μL Opti-Mem transfection media is incubated with the DNA-Plus reagent mixture for 15 minutes. During the DNA-lipid incubation, the CHO—K1 cells are washed once and covered in 5.0 mL DMEM media without Penicillin-Streptomycin. The DNA-lipid preparation is then layered onto these cells and incubated at 37° C. overnight.
One and one half million transfected cells per well (100 μL total volume) are plated into sterile, opaque Packard 96-well Cultur-Plates in clear DMEM whole media (DMEM—without phenol red) and incubated at 37° C. with 5% CO2 for 3-5 hours.
Compounds are diluted using two different protocols; one protocol is used for compounds supplied neat (weighed powder in vial) and the other protocol is used for compounds supplied in solution (20 mM in DMSO in 96-well plates). For both protocols, 25 mM Hepes and 25 mM Hepes/1% DMSO are prepared fresh to be used as diluent. The Hepes/DMSO is used as the diluent control on all experimental plates.
The following Table 1 depicts the steps for compound dilution (the last step is the addition of compound to cells/media in tissue culture plate):
Because some compounds arrive in 96-well format at 20 mM, the following Table 2 represents the protocol for their dilution (an average molecular weight of these compounds was used to calculate these dilutions and as above, the last step is the addition of compound to cells/media in tissue culture plate):
Once compounds are diluted, they are applied in duplicate on cells in tissue culture plates (prepared above). Cells are incubated with compound at 37° C. with 5% CO2 for an additional 36-48 hours.
Luciferase assays (LucLite reagent, Packard) are performed and are read on a Packard TopCount instrument. Media is removed from each 96-well plate and replaced with 100 μL PBS per well (with Mg^2+ and Ca^2+). An equal volume (100 μL) of the LucLite lysis/substrate buffer is added to each well and the plates are sealed and mixed in the dark on a rotary shaker for 15-30 minutes at room temperature. Luciferase readings are then taken on the TopCount instrument. Measurements are expressed as relative light units (RLU) and are calculated and analyzed in MS Excel as follows:
Fold Increase: amount of luciferase activity (measured in relative light units) over diluent control.
SEM: standard error of the mean for fold increase.
Activity: A compound is considered active if it results in at least a 1.5 fold increase in luciferase activity at 20 μg/mL.
Toxicity: determined by loss of signal (<0.75 fold increase).

beta amyloid 40 = assay: Aβ40/42 ELISA Assay (Aβ40); settings: Cricetulus griseus; CHO cells carrying the APP-REP-NL plasmid, 22 hours, sandwich ELISA
Procedure: (§1) Compounds are diluted from DMSO stocks to 2 μM and below in a cell culture medium. Compounds are then applied to CHO cells carrying the APP-REP-NL plasmid [Sudhir et. al, J. Biolog. Chem. 267:25602-25608 (1992)] for a period of 22 hours. After the conditioning period, medium is collected, diluted in assay buffer containing protein, and samples, controls, and synthetic peptide standards are incubated on a prepared ELISA plate. Using a sandwich ELISA with antibodies specifically directed against the carboxyl terminus of beta amyloid 40 or 42 (analogous to the method reported by Haugabook et al., J. Neurosci. Methods 108:171-179 (2001) but using goat anti-mouse IgG1 (source: Southern Biotech) as the anchor, 6E10 as the capture antibody (Source: SENETEK), rabbit antiAβ40 and antiAβ42 (source: QCB) and APL-donkey anti-rabbit IgG (H+L, source: Southern Biotech) as the detection antibody), the effect of the compound treatment on the cellular production of extracellular beta amyloid is quantified. Cells treated with compound are subsequently incubated in cell culture medium containing MTS-formazan. After a short incubation period, MTS/medium containing plates are read in a spectrophotometer to determine the extent to which compound toxicity affected the cell's metabolism and ability to synthesize beta amyloid.
(§2) A. Test Samples: compound samples are supplied as 20 mM stock solutions in a 100% DMSO solution.
(§3) B. APP-REP-NL cells: Qualified cell lines are carried from week to week using 1:100 dilutions and are cultured in DMEM supplemented with 1× antibiotic/antimycotic, 200 ug/ml of G418 antibiotic, and 10% certified fetal calf serum. Cells are also banked in liquid nitrogen. Periodically, beta amyloid production is assessed, and cells are either kept in culture or replaced with progenitors at full expression.
(§4) C. Antibodies: From certified lots that have already been qualified in this assay. Antibodies are stored in small frozen aliquots at −80° C. that are thawed and used.
(§5) A compound is considered active if it has an EC50 for Aβ40 reduction of <100 μM and no toxicity at doses in the vicinity of the EC50.

beta amyloid 42 = assay: Aβ40/42 ELISA Assay (Aβ42); settings: CHO cells carrying the APP-REP-NL plasmid, 22 hours, sandwich ELISA; for EC50: Cricetulus griseus
Procedure: as §1, §2, §3, §4, §5

Row | EC50 (beta amyloid 40) [µM] | EC50 (beta amyloid 42) [µM] | Compound | fold induction at 20 µg/mL [1] | Effect on Aβ42 production (beta amyloid 42) | RRA data (footnote symbols) ([1]; tested at 20 μg/mL)
1 | 4 | 5.1 | CC(C)C(NS(=O)(=O)c1ccc(Cl)s1)c1ccnn1-c1ccc(F)cc1 (racemic) [Example 15, 5-Chloro-N-{1-[1-(4-fluorophenyl)-1H-pyrazol-5-yl]-2-methylpropyl}thiophene-2-sulfonamide] | 2.8 |  | 
2 | 21.9 |  | CC(C)[C@@H](NS(=O)(=O)c1ccc(Cl)s1)c1ccnn1-c1ccc(F)cc1 (stereo in doubt) [Example 41, 5-Chloro-N-{(1R)-1-[1-(4-fluorophenyl)-1H-pyrazol-5-yl]-2-methylpropyl}thiophene-2-sulfonamide] |  | increase | 
3 | 1 | 1 | CC(C)[C@H](NS(=O)(=O)c1ccc(Cl)s1)c1ccnn1-c1ccc(F)cc1 (stereo in doubt) [Example 42, 5-Chloro-N-{(1S)-1-[1-(4-fluorophenyl)-1H-pyrazol-5-yl]-2-methylpropyl}thiophene-2-sulfonamide] |  |  | 
4 | 1.4 | 3.3 | CC(C)C(NS(=O)(=O)c1ccc(Cl)s1)c1ccnn1-c1ccccc1 (centres unmarked) [Example 12, 5-Chloro-N-[2-methyl-1-(1-phenyl-1H-pyrazol-5-yl)propyl]thiophene-2-sulfonamide] |  |  | ***
5 | 4.8 | 5.1 | CC(NS(=O)(=O)c1ccc(Cl)s1)c1ccnn1-c1ccccc1 (centres unmarked) [Example 13, 5-Chloro-N-[1-(1-phenyl-1H-pyrazol-5-yl)ethyl]thiophene-2-sulfonamide] | 6.4 |  | 
6 | 1.2 | 1.2 | Cc1ccc(-n2nccc2C(NS(=O)(=O)c2ccc(Cl)s2)C(C)C)cc1 (centres unmarked) [Example 14, 5-Chloro-N-{2-methyl-1-[1-(4-methylphenyl)-1H-pyrazol-5-yl]propyl}thiophene-2-sulfonamide] | 17.7 |  | 
7 | 4.2 | 10 | CCC(CC)C(NS(=O)(=O)c1ccc(Cl)s1)c1ccnn1-c1ccccc1 (centres unmarked) [Example 17, 5-Chloro-N-[2-ethyl-1-(1-phenyl-1H-pyrazol-5-yl)butyl]thiophene-2-sulfonamide] |  |  | 
8 | 19.4 |  | CCC(CC)C(NS(=O)(=O)c1ccc(Cl)s1)c1nccn1Cc1ccccc1 (centres unmarked) [Example 28, N-[1-(1-Benzyl-1H-imidazol-2-yl)-2-ethylbutyl]-5-chlorothiophene-2-sulfonamide] | 1.5 |  | 
9 | 12.8 | 67.2 | O=S(=O)(NC(Cc1ccccc1)c1ccnn1-c1ccc(F)cc1)c1ccc(Cl)s1 (centres unmarked) [Example 35, 5-Chloro-N-{1-[1-(4-fluorophenyl)-1H-pyrazol-5-yl]-2-phenylethyl}thiophene-2-sulfonamide] |  |  | 

Second part, the compound before the results:

Row | Compound | EC50 (beta amyloid 40) [µM] | EC50 (beta amyloid 42) [µM] | fold induction at 20 µg/mL [1] | Effect on Aβ42 production (beta amyloid 42) | RRA data (footnote symbols) ([1]; tested at 20 μg/mL)
10 | CCC(CC)C(NS(=O)(=O)c1ccc(Cl)s1)c1ccnn1Cc1ccc(OC)cc1 (centres unmarked) [Example 1, 5-Chloro-N-{2-ethyl-1-[1-(4-methoxybenzyl)-1H-pyrazol-5-yl]butyl}thiophene-2-sulfonamide] | 1 | 1 | 7.8 |  | 
11 | CCC(CC)C(NS(=O)(=O)c1ccc(Cl)cc1)c1ccnn1Cc1ccc(OC)cc1 (centres unmarked) [Example 2, 4-Chloro-N-{2-ethyl-1-[1-(4-methoxybenzyl)-1H-pyrazol-5-yl]butyl}benzenesulfonamide] | 6.4 | 13 | 11.3 |  | 
12 | CCC(CC)C(NS(=O)(=O)c1ccc(Br)cc1)c1ccnn1Cc1ccc(OC)cc1 (centres unmarked) [Example 3, 4-Bromo-N-{2-ethyl-1-[1-(4-methoxybenzyl)-1H-pyrazol-5-yl]butyl}benzenesulfonamide] | 6.8 | 10 | 5.9 |  | 
13 | COc1ccc(Cn2nccc2C(C)NS(=O)(=O)c2ccc(Cl)s2)cc1 (centres unmarked) [Example 4, 5-Chloro-N-{1-[1-(4-methoxybenzyl)-1H-pyrazol-5-yl]ethyl}thiophene-2-sulfonamide] | 1.8 | 1.3 | 2.3 |  | 
14 | COc1ccc(Cn2nccc2C(NS(=O)(=O)c2ccc(Cl)s2)C(C)C)cc1 (centres unmarked) [Example 5, 5-Chloro-N-{1-[1-(4-methoxybenzyl)-1H-pyrazol-5-yl]-2-methylpropyl}thiophene-2-sulfonamide] | 1.1 | 0.9 | 3.5 |  | 
15 | CCCC(NS(=O)(=O)c1ccc(Cl)s1)c1ccnn1Cc1ccc(OC)cc1 (centres unmarked) [Example 6, 5-Chloro-N-{1-[1-(4-methoxybenzyl)-1H-pyrazol-5-yl]butyl}thiophene-2-sulfonamide] | 1.5 | 1.4 | 4.7 |  | 
16 | CCCCn1nccc1C(NS(=O)(=O)c1ccc(Cl)s1)C(CC)CC (centres unmarked) [Example 7, N-[1-(1-Butyl-1H-pyrazol-5-yl)-2-ethylbutyl]-5-chlorothiophene-2-sulfonamide] | 2.4 | 2.7 | 5.4 |  | 
17 | CCC(CC)C(NS(=O)(=O)c1ccc(Cl)s1)c1ccnn1-c1ccc(OC)cc1 (centres unmarked) [Example 10, 5-Chloro-N-{2-ethyl-1-[1-(4-methoxyphenyl)-1H-pyrazol-5-yl]butyl}thiophene-2-sulfonamide] | 4 | 10.1 | 1.7 |  | 
18 | CCC(CC)C(NS(=O)(=O)c1ccc(Cl)s1)c1ccnn1-c1ccc(O)cc1 (centres unmarked) [Example 11, 5-Chloro-N-{2-ethyl-1-[1-(4-hydroxyphenyl)-1H-pyrazol-5-yl]butyl}thiophene-2-sulfonamide] | 1 | 2.7 | 3 |  | 
19 | CCC(CC)C(NS(=O)(=O)c1ccc(Cl)s1)c1ncnn1Cc1ccc(F)cc1 (centres unmarked) [Example 19, 5-Chloro-N-{2-ethyl-1-[1-(4-fluorobenzyl)-1H-1,2,4-triazol-5-yl]butyl}thiophene-2-sulfonamide] |  |  | 3.9 |  | 
